Test results taken from US20130324412A1, “N-ALKOXYAMIDES OF 6-(SUBSTITUTED PHENYL)-4-AMINOPICOLINATES AND 2-(SUBSTITUTED PHENYL)-6-AMINO-4-PYRIMIDINECARBOXYLATES AND THEIR USE AS SELECTIVE HERBICIDES FOR CROPS” (DOW AGROSCIENCES LLC, priority 2009, published 2013).

Tests used:
[1] = test system: winter oilseed rape (canola) (Brassica napus); assay: Postemergence herbicidal activity in oilseed rape (canola), crop; type: in vivo; set-up: unit not given here; settings: visual rating after 21 d, probit analysis, dose to kill or control 20 percent
Procedure: (§1) Seeds of oilseed rape (canola) and the desired weed species were planted in Sun Gro MetroMix® 360 planting mixture, which typically has a pH of 6.0 to 6.8 and an organic matter content of about 30 percent, in plastic pots with a surface area of 95 cm^2. When required to ensure good germination and healthy plants, a fungicide treatment and/or other chemical or physical treatment was applied. The plants were grown for 15-28 d in a greenhouse with an approximate 15-h photoperiod which was maintained at about 23-29° C. during the day and 22-28° C. during the night. Nutrients and water were added on a regular basis and supplemental lighting was provided with overhead metal halide 1000-Watt lamps as necessary. The oilseed rape (canola) plants were utilized for testing when they reached the third or fourth true leaf stage. The weed species were utilized at the fourth true leaf stage.
A weighed amount, determined by the highest rate to be tested, of each test compound was dissolved in 4 mL of a 97:3 v/v mixture of acetone and DMSO to obtain concentrated stock solutions. […] The concentrated stock solutions obtained were diluted with 20 mL of an aqueous mixture containing acetone, water and Agri-Dex crop oil concentrate, in a 16.7:82.1:1.25 v/v ratio to obtain spray solutions containing the highest application rates. Additional application rates were obtained by serial dilution of 12 mL of the high rate solution into a solution containing 2 mL of 97:3 v/v mixture of acetone and DMSO and 10 mL of an aqueous mixture containing acetone, water and Agri-Dex crop oil concentrate, in a 16.7:82.1:1.25 v/v ratio to obtain ½×, ¼×, ⅛× and 1/16× rates of the high rate. Compound requirements are based upon a 12 mL application volume at a rate of 187 L/ha. Formulated compounds were applied to the plant material with an overhead Mandel track sprayer equipped with 8002E nozzles calibrated to deliver 187 L/ha over an application area of 0.503 m^2 at a spray height of 18 inches (43 cm) above the average plant canopy height. Control plants were sprayed in the same manner with the solvent blank.
(§2) The treated plants and control plants were placed in a greenhouse as described above and watered by sub-irrigation to prevent wash-off of the test compounds. After 21 d, the condition of the test plants as compared with that of the untreated plants was determined visually and scored on a scale of 0 to 100 percent where 0 corresponds to no injury and 100 corresponds to complete kill.
By applying the well-accepted probit analysis as described by J. Berkson in Journal of the American Statistical Society 1953, 48, 565, and by D. Finney in “Probit Analysis” Cambridge University Press (1952), the above data can be used to calculate GR20 and GR80 values, which are defined as growth reduction factors that correspond to the effective dose of herbicide required to kill or control 20 percent or 80 percent, respectively, of a target plant.

corn (Zea mays) = assay: Postemergence herbicidal activity in corn, crop; type: in vivo; settings: visual rating after 21 d, probit analysis, dose to kill or control 20 percent
Procedure: as §1, with “corn” for “oilseed rape (canola)”, “MetroMix” for “MetroMix®”, “7-21” for “15-28”, “second” for “third or fourth”, “first or second” for “fourth”
A weighed amount, determined by the highest rate to be tested, of each test compound was dissolved in 4 mL of a 97:3 v/v mixture of acetone and DMSO to obtain concentrated stock solutions. […] The concentrated stock solutions obtained were diluted with 20 mL of an aqueous mixture containing acetone, water, isopropyl alcohol, DMSO, Atplus 411F crop oil concentrate, and Triton X-155 surfactant in a 48.5:39:10:1.5:1.0:0.02 v/v ratio to obtain spray solutions containing the highest application rates. […]
as §2, with “kill. […]” for “kill.”

Structure (SMILES)	BRSNW GR20 [1]	ZEAMX GR20 (corn (Zea mays)) [g ai/ha]
COc1c(Cl)ccc(-c2cc(N)c(Cl)c(C(=O)NOCC(C)C)n2)c1F [Compound 1, 4-amino-3-chloro-6-(4-chloro-2-fluoro-3-methoxyphenyl)-N-(2-methylpropoxy)picolinamide]	>70	>35
CONC(=O)c1nc(-c2ccc(Cl)c(OC)c2F)cc(N)c1Cl [Compound 2, 4-Amino-3-chloro-6-(4-chloro-2-fluoro-3-methoxyphenyl)-N-methoxypicolinamide]	>70	>35
